“Also recorded” adds a separate entry of the source.
Key:
[1] = target: β3 (Homo sapiens, UniProt P13945); assay: PDSP off-target binding; settings: ± SEM
[2] = target: TSPO (Rattus norvegicus, UniProt P16257); assay: PDSP off-target binding; settings: ± SEM
[3] = target: 5HT1D (Homo sapiens, UniProt P28221); assay: PDSP off-target binding; settings: ± SEM
[4] = target: 5HT1E (Homo sapiens, UniProt P28566); assay: PDSP off-target binding; settings: ± SEM
[5] = test system: CCI-induced mechano-allodynia; assay: Chronic constriction injury (CCI) of the sciatic nerve, mechano-allodynia by von Frey filaments; type: in vivo, mouse
Experimental: Chronic constriction injury (CCI) to the sciatic nerve was performed using the Bennett model. […] Then the animals were placed on a sterile surgical field and the skin was wiped with topical antiseptic, Dermachlor solution (0.2% chlorhexidine gluconate). […] A small incision was created on the lateral side of the left hind limb parallel to the femur. The sciatic nerve was exposed and ligated on two sites about 1 mm apart above the trifurcation using silk sutures 6.0. The incision was closed with clips and lidocaine cream was applied.
Mice were acclimated to the testing mesh-rack for 30 min before behavioral measurements. All behavioral testing was performed in the morning. The baseline measurements were determined on day 0 before CCI procedure. On day 7 post-CCI, baseline behavior responses were assessed, beginning prior to drug administration. Following drug injection, the behaviors were evaluated at multiple time points. Mechano-allodynia was quantified according to the hind paw withdrawal response to von Frey filaments stimulation by the Dixon up-and-down method. […] In presence of a positive withdrawal response a lighter filament was applied. If a negative response occurred, a stronger filament was used. At least four readings are obtained after the first positive response and the pattern of response was converted to a 50% paw withdrawal threshold (PWT), using the method described by Chaplan et al., J. Neurosci.
Data are expressed as mean±SD and analyzed by two-tailed, two-way repeated measures ANOVA with Dunnett's post hoc comparisons to day 7 behavior. The percentage of reversal of peak CCI-induced pain afforded by each drug was calculated for each animal using their baseline and day 7 post CCI behavioral measures. % Reversal=(PWT(g)t−PWT(g)day7)/PWT(g)day0−PWT(g)day7)×100, where PWT(g)=paw withdrawal threshold, t=time after drug. […] All statistical analyses were performed using GraphPad Prism 8 (Graph Pad Inc., San Diego, Calif.). Significance was accepted at p<0.05.

[6] = target: T1, α2C (Homo sapiens, UniProt P18825); assay: PDSP off-target binding; settings: ± SEM
T1 sequence (P18825 1-462): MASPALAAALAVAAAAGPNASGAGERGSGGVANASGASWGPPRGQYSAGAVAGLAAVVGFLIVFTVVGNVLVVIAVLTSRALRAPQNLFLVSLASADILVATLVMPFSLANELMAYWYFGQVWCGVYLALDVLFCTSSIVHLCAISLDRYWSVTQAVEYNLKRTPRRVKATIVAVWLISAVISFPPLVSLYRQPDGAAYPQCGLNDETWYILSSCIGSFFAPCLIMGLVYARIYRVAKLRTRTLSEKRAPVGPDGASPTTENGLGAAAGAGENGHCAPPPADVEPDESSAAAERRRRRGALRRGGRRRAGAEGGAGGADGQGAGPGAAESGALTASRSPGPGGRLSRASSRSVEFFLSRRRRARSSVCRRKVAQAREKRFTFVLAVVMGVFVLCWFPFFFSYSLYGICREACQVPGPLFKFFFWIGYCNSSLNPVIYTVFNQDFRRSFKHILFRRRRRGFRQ

[7] = target: T2, mP2Y14R (Mus musculus, UniProt Q9ESG6)
T2 sequence (Q9ESG6 1-338): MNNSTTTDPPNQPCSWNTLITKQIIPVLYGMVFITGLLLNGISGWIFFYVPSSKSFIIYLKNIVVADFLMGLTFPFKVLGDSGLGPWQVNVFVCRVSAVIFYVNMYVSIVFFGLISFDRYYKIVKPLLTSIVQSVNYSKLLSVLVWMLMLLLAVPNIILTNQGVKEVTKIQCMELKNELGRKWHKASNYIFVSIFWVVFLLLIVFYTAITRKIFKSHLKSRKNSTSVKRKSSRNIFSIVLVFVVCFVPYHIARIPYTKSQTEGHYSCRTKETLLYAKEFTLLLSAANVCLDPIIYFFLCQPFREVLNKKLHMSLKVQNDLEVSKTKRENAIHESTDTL

[8] = target: DOR (Homo sapiens, UniProt P41143); assay: PDSP off-target binding
DOR, sequence (P41143 whole entry): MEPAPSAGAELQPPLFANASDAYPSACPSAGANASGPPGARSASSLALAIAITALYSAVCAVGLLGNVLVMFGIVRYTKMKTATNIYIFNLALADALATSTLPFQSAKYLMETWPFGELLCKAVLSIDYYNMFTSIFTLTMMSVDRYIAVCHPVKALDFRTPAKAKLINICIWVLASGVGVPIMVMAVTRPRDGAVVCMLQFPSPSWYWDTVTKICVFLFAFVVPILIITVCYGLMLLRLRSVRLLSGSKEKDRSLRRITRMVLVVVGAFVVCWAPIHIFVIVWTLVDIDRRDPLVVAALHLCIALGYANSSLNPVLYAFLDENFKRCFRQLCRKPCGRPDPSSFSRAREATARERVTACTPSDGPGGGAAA

[9] = target: T3, α2B (Homo sapiens, UniProt P18089); assay: PDSP off-target binding
T3 sequence (P18089 1-450): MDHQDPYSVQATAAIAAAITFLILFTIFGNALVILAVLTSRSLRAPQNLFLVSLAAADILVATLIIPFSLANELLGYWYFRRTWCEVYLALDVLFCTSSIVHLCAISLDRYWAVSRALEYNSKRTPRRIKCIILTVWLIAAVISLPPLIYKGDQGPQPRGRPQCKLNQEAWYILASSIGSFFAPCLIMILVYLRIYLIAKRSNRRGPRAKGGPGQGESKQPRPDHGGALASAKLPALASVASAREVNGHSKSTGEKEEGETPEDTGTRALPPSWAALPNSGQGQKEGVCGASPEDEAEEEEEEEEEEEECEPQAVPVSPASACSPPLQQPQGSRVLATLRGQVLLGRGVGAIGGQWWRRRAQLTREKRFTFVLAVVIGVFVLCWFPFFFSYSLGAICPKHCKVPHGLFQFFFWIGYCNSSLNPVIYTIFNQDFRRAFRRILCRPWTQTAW

[10] = target: T4, hP2Y14R (Homo sapiens, UniProt Q15391); assay: Competitive fluorescent binding assay in whole CHO-hP2Y14R cells, tracer 20, flow cytometry; settings: read-out: Human P2Y14R binding affinity (IC50)
T4 construct: expressed in transfected cells; host or cells: CHO
T4 sequence (Q15391 1-338): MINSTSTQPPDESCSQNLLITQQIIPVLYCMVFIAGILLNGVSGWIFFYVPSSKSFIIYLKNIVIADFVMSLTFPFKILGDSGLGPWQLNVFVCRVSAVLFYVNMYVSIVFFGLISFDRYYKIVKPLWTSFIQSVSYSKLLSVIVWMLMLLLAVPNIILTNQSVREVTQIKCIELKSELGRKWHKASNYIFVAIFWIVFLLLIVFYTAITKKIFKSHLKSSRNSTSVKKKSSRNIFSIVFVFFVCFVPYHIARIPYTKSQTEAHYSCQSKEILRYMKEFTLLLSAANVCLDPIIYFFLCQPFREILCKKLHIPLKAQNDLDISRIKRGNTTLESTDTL

[11] = target: T5, α2A (Homo sapiens, UniProt P08913); assay: PDSP off-target binding
T5 sequence (P08913 1-465): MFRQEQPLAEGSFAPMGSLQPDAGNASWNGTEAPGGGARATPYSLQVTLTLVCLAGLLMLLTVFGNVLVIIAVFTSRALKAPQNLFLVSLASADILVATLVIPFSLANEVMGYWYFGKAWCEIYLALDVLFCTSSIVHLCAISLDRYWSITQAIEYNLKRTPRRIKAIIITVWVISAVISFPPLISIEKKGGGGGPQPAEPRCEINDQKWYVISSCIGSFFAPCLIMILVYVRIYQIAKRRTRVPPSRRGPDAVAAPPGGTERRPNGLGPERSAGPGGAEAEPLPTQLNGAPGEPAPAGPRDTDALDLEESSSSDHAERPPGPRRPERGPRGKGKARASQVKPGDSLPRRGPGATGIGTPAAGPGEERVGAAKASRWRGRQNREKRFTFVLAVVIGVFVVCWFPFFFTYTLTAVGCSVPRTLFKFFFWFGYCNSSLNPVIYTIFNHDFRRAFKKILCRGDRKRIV

[12] = 10 μmol/kg, i.p., day 7 post-CCI, n = 3

5HT1D, sequence (P28221 whole entry, species assumed): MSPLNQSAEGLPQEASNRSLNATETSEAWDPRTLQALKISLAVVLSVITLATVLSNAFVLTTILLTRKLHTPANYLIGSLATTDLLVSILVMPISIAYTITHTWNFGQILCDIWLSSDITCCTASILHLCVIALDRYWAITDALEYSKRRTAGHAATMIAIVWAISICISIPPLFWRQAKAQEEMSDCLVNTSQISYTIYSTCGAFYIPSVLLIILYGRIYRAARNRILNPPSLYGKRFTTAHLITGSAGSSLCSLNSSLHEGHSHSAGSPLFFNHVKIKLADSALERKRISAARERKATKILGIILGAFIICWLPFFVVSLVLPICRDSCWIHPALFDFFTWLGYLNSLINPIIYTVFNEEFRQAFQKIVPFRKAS
TSPO, sequence (P16257 whole entry): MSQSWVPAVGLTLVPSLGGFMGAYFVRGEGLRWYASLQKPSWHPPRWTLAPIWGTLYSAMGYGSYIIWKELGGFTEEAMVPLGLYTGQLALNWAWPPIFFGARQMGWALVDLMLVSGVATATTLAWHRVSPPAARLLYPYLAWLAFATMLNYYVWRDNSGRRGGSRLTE
5HT1E, sequence (P28566 whole entry, species assumed): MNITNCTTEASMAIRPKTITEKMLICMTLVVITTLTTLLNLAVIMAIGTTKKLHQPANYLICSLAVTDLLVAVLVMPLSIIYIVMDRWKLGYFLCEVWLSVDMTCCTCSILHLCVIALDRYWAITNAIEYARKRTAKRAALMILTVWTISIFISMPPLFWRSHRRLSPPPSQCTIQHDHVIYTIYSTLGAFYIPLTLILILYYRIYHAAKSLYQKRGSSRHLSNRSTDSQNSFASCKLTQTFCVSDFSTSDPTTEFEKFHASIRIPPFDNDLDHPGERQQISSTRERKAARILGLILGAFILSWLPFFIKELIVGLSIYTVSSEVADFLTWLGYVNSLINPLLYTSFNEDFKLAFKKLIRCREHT
β3, sequence (P13945 whole entry): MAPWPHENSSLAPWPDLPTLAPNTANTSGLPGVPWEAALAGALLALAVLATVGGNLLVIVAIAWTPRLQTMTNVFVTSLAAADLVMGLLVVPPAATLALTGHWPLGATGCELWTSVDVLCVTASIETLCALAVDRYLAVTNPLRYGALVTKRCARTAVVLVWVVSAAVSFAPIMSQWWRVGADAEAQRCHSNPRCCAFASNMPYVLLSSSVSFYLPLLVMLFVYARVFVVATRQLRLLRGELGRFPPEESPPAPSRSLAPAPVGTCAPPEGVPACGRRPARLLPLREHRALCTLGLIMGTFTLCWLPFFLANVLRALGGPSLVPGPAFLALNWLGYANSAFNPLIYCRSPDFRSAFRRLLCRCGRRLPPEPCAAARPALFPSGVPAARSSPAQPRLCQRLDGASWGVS

SMILES	Ki [1]	Ki [2]	Ki [3]	Ki [4]	In vivo efficacy compared with a comparator compound ([5]; 10 μmol/kg i.p., 6 vs 7, 4 vs 1)	Effect at 0.5 h (% ± SD), percent inhibition of mechano-allodynia [5, 12]	Effect at 1 h (% + SD), percent inhibition of mechano-allodynia [5, 12]	Effect at 2 h (% ± SD), percent inhibition of mechano-allodynia [5, 12]	Effect at 3 h (% ± SD), percent inhibition of mechano-allodynia [5, 12]	Effect at 5 h (% ± SD), percent inhibition of mechano-allodynia [5, 12]	Reversal of CCI-induced mechano-allodynia ([5]; 10 μmol/kg, i.p., ipsilateral hind paw, day 7 post-CCI)	Ki [6]	mP2Y14R affinity compared to isomer 6 ([7]; 7 vs 6)	IC50 ([7]; read-out: Mouse P2Y14R binding affinity (IC50), mP2Y14R in HEK293 cells, tracer 20)	Ki [8]	Ki [9]	IC50 [10]	Ki [11]
CC(=O)N1CCC(c2ccc(-c3cc(C(=O)O)cc4cc(-c5ccc(C(F)(F)F)cc5)ccc34)cc2)CC1 [Compound 4, 4-(4-(1-(Acetyl)piperidin-4-yl)phenyl)-7-(4-(trifluoromethyl)phenyl)-2-naphthoic acid]	860 nM	508 nM	1750 nM	3910 nM	–	–	–	–	–	–	–	–	–	–	–	–	–	–
O=C(O)c1cc(-c2ccc(C3CCNCC3)cc2)cc(-c2cn(-c3ccc(C(F)(F)F)cc3)nn2)c1 [Compound 7, 4′-(Piperidin-4-yl)-5-(1-(4-(trifluormethyl)phenyl)-1H-1,2,3-triazol-4-yl)-[1,1′-biphenyl]-3-carboxylic acid]	–	–	–	–	no statistical difference; also recorded: similar	70.7 ± 16.5%	86.8 ± 2.4%	71.4 ± 10.2%	55.1 ± 18.6%	6.7 ± 5.9%	reversed the allodynia	2710 nM	nearly equipotent	246 ± 63 nM	3790 nM	5330 nM	664 ± 175 nM	959 nM

Reference: patent US11708346B2, “Treatment and prevention of neuropathic pain with P2Y14 antagonists” (Saint Louis University, priority 2019, dated 2023)
